Results on 34 compounds are retold here after US20080242661A1, “Novel compounds useful for the treatment of degenerative & inflammatory diseases” (priority 2006, published 2008).

The test addresses purified PDE1A enzyme (Homo sapiens, UniProt P54750). Kind of test: In vitro PDE1A assay, dose response (Biomol Cyclic Nucleotide Phosphodiesterase Assay Kit, colorimetric). The conditions noted are these: 100 μM cAMP, 45 min at 37° C., 8 points from 20 μM, duplicate. The format is biochemical. An excerpt: For the dose response and further screening, we used the Cyclic Nucleotide Phosphodiesterase Assay Kit from Biomol, a colorimetric, non-radioactive assay. The basis for the assay is the cleavage of cAMP by PDE1A. The 5′AMP is further cleaved into the nucleoside and phosphate by the enzyme 5′-nucleotidase (catnr KI-307). The phosphate released due to enzymatic cleavage is quantified using BIOMOL GREEN™ reagent (catnr AK-111) in a modified Malachite Green assay 1,2. A PDE1A inhibitor will result in a decrease of the signal.
For the enzymatic reaction a mix of 25 μL with purified PDE1A enzyme, 100 μM cAMP, 5′Nucleotidase and the compound is made in a clear 384-plate. The reaction buffer is Tris 20 mM pH 7.4, 4 μg/ml calmodulin, 3 mM MgCl2, 1.5 mM CaCl2, 0.2 mg/mL BSA and 0.001% Brij-35. After an incubation of 45 minutes at 37° C., the reaction is stopped by the addition of 50 μL BIOMOL GREEN™ reagent. After 30 minutes incubation at room temperature, the readout is performed on the Envision (absorption at 615 nm).
All compounds are tested in duplicate starting from 20 μM followed by a ⅓ serial dilution, 8 points (20 μM-6.67 μM-2.22 μM-740 nM-247 nM-82 nM-27 nM-9 nM) in a final concentration of 1% DMSO. As the positive dose response control compound Vardenafil is used. For the calculation of z′ and PIN values 10 μM Vardenafil is used as positive control (100% inhibition) and 1% DMSO as negative control (0% inhibition).
The following compounds have been or can be prepared according to the synthetic methods described above. For the purpose of Table 2 below, activity of each compound, which can be determined using the PDE1A assay method described in above, is expressed as follows: […]
By IC50 is commonly meant the point on the concentration scale where inhibition reaches its midpoint. Low readings indicate inhibition by little substance, high ones a need for much substance. As for `CCCc1nn(C)c2c(=O)[nH]c(N(Cc3cccc(N4CCOCC4)c3)CC(C)C)nc12` [Example 74, 5-(isobutyl(3-morpholinobenzyl)amino)-1-methyl-3-propyl-1H-pyrazolo[4,3-d]pyrimidin-7(6H)-one], the IC50 is less than 100 nM.
Then `CCCc1nn(C)c2c(=O)[nH]c(NCCC(C)C)nc12` [Example 19, 5-(isopentylamino)-1-methyl-3-propyl-1H-pyrazolo[4,3-d]pyrimidin-7(6H)-one], with more than 500 nM; and `CCCc1nn(C)c2c(=O)[nH]c(N(C)Cc3cccc(C(F)(F)F)c3)nc12` [Example 5, 1-methyl-5-(methyl(3-(trifluoromethyl)benzyl)amino)-3-propyl-1H-pyrazolo[4,3-d]pyrimidin-7(6H)-one], with 101 to 500 nM; and `CCCc1nn(C)c2c(=O)[nH]c(NCc3cc(-c4ccccc4)nn3C)nc12` [Example 66, 1-methyl-5-((1-methyl-3-phenyl-1H-pyrazol-5-yl)methylamino)-3-propyl-1H-pyrazolo[4,3-d]pyrimidin-7(6H)-one], with less than 100 nM.
Take `CCCc1nn(C)c2c(=O)[nH]c(N(C)Cc3ccc(-c4ccncc4)cc3)nc12` [Example 40, 1-methyl-5-(methyl(4-(pyridin-4-yl)benzyl)amino)-3-propyl-1H-pyrazolo[4,3-d]pyrimidin-7(6H)-one]: the IC50 is less than 100 nM.
Then `CCCc1nn(C)c2c(=O)[nH]c(N(C)CCc3ccc(OC)c(OC)c3)nc12` [Example 20, 5-((3,4-dimethoxyphenethyl)(methyl)amino)-1-methyl-3-propyl-1H-pyrazolo[4,3-d]pyrimidin-7(6H)-one], with more than 500 nM; and `CCCc1nn(C)c2c(=O)[nH]c(N(C)Cc3nn(C)c4ccccc34)nc12` [Example 35, 1-methyl-5-(methyl((1-methyl-1H-indazol-3-yl)methyl)amino)-3-propyl-1H-pyrazolo[4,3-d]pyrimidin-7(6H)-one], with more than 500 nM.
As to `CCCc1nn(C)c2c(=O)[nH]c(N(CCC)CCC)nc12` [Example 4, 5-(dipropylamino)-1-methyl-3-propyl-1H-pyrazolo[4,3-d]pyrimidin-7(6H)-one], the IC50 is less than 100 nM.
In the case of `CC(C)CN(Cc1cccc(-n2cncn2)c1)c1nc2c(C(C)(C)C)nn(C)c2c(=O)[nH]1` [Example 95], the IC50 is less than 100 nM.
The value for `CCCc1nn(C)c2c(=O)[nH]c(NCc3ccc(Cl)c(Cl)c3)nc12` [Example 32, 5-(3,4-dichlorobenzylamino)-1-methyl-3-propyl-1H-pyrazolo[4,3-d]pyrimidin-7(6H)-one] was 101 to 500 nM; that for `Cn1nc(C2CCCC2)c2nc(N3CCCC3c3ccccc3)[nH]c(=O)c21` (stereo not shown) [Example 86, 3-cyclopentyl-1-methyl-5-(2-phenylpyrrolidin-1-yl)-1H-pyrazolo[4,3-d]pyrimidin-7(6H)-one] was less than 100 nM; that for `CN(Cc1cc(-c2ccccc2)nn1C)c1nc2c(C(C)(C)C)nn(C)c2c(=O)[nH]1` [Example 81, 3-tert-butyl-1-methyl-5-(methyl((1-methyl-3-phenyl-1H-pyrazol-5-yl)methyl)amino)-1H-pyrazolo[4,3-d]pyrimidin-7(6H)-one] was less than 100 nM.
In the case of `Cn1nc(C2CCCC2)c2nc(N3CCCCC3)[nH]c(=O)c21` [Example 85, 3-cyclopentyl-1-methyl-5-(piperidin-1-yl)-1H-pyrazolo[4,3-d]pyrimidin-7(6H)-one], the IC50 was more than 500 nM.
The value for `CCCc1nn(C)c2c(=O)[nH]c(N(C)Cc3ccc(F)cc3)nc12` [Example 21, 5-((4-fluorobenzyl)(methyl)amino)-1-methyl-3-propyl-1H-pyrazolo[4,3-d]pyrimidin-7(6H)-one] was less than 100 nM.
Then `CCCc1nn(C)c2c(=O)[nH]c(N(C)Cc3ccc(OCCN4CCOCC4)cc3)nc12` [Example 49, 1-methyl-5-(methyl(4-(2-morpholinoethoxy)benzyl)amino)-3-propyl-1H-pyrazolo[4,3-d]pyrimidin-7(6H)-one], with 101 to 500 nM; and `CCCc1nn(C)c2c(=O)[nH]c(N(Cc3cccc(N4CCOCC4)c3)CC(C)CC)nc12` (stereo not shown) [Example 114, 1-methyl-5-((2-methylbutyl)(3-morpholinobenzyl)amino)-3-propyl-1H-pyrazolo[4,3-d]pyrimidin-7(6H)-one], with less than 100 nM.
Then `CCCc1nn(C)c2c(=O)[nH]c(N(C)Cc3cccc(-c4cncnc4)c3)nc12` [Example 12, 1-methyl-5-(methyl(3-(pyrimidin-5-yl)benzyl)amino)-3-propyl-1H-pyrazolo[4,3-d]pyrimidin-7(6H)-one], with 101 to 500 nM.
Regarding `CCCC(C)CN(Cc1cccc(N2CCOCC2)c1)c1nc2c(C(C)(C)C)nn(C)c2c(=O)[nH]1` (stereo not shown) [Example 104, 3-tert-butyl-1-methyl-5-((2-methylpentyl)(3-morpholinobenzyl)amino)-1H-pyrazolo[4,3-d]pyrimidin-7(6H)-one], the 50% inhibitory concentration (IC50) is less than 100 nM.
`Cn1nc(C(C)(C)C)c2nc(N(CCC(C)(C)C)Cc3cccc(N4CCOCC4)c3)[nH]c(=O)c21` [Example 103, 3-tert-butyl-5-((3,3-dimethylbutyl)(3-morpholinobenzyl)amino)-1-methyl-1H-pyrazolo[4,3-d]pyrimidin-7(6H)-one] gave an IC50 of less than 100 nM.
The value for `CCCc1nn(C)c2c(=O)[nH]c(N(C)Cc3cccc4ccccc34)nc12` [Example 58, 1-methyl-5-(methyl(naphthalen-1-ylmethyl)amino)-3-propyl-1H-pyrazolo[4,3-d]pyrimidin-7(6H)-one] was more than 500 nM; that for `CCCc1nn(C)c2c(=O)[nH]c(NCc3sc(-c4ccccc4)nc3C)nc12` [Example 72, 1-methyl-5-((4-methyl-2-phenylthiazol-5-yl)methylamino)-3-propyl-1H-pyrazolo[4,3-d]pyrimidin-7(6H)-one] was less than 100 nM; that for `CCCC(C)CN(C)c1nc2c(C(C)(C)C)nn(C)c2c(=O)[nH]1` (stereo not shown) [Example 115, 3-tert-butyl-1-methyl-5-(methyl(2-methylpentyl)amino)-1H-pyrazolo[4,3-d]pyrimidin-7(6H)-one] was less than 100 nM.
Then `CCCc1nn(C)c2c(=O)[nH]c(NCCc3ccc(F)cc3)nc12` [Example 87, 5-(4-fluorophenethylamino)-1-methyl-3-propyl-1H-pyrazolo[4,3-d]pyrimidin-7(6H)-one], with more than 500 nM; and `CCCc1nn(C)c2c(=O)[nH]c(N(C)Cc3ccc(-c4cncnc4)cc3)nc12` [Example 13, 1-methyl-5-(methyl(4-(pyrimidin-5-yl)benzyl)amino)-3-propyl-1H-pyrazolo[4,3-d]pyrimidin-7(6H)-one], with 101 to 500 nM.
The value for `CCCc1nn(C)c2c(=O)[nH]c(NCc3cccc(N4CCCC4)c3)nc12` [Example 26, 1-methyl-3-propyl-5-(3-(pyrrolidin-1-yl)benzylamino)-1H-pyrazolo[4,3-d]pyrimidin-7(6H)-one] was 101 to 500 nM; that for `CCCc1nn(C)c2c(=O)[nH]c(N(CCC(C)C)Cc3cccc(-n4cccn4)c3)nc12` [Example 106] was less than 100 nM.
`Cn1nc(C2CCCC2)c2nc(NCc3ccc(Cl)c(Cl)c3)[nH]c(=O)c21` [Example 76, 3-cyclopentyl-5-(3,4-dichlorobenzylamino)-1-methyl-1H-pyrazolo[4,3-d]pyrimidin-7(6H)-one] returned an IC50 of 101 to 500 nM.
Regarding `CCCc1nn(C)c2c(=O)[nH]c(NCc3ccc4c(c3)CCO4)nc12` [Example 62, 5-((2,3-dihydrobenzofuran-5-yl)methylamino)-1-methyl-3-propyl-1H-pyrazolo[4,3-d]pyrimidin-7(6H)-one], the IC50 was 101 to 500 nM.
Compound `CCCc1nn(C)c2c(=O)[nH]c(N(C)Cc3ccccc3Cl)nc12` [Example 24, 5-((2-chlorobenzyl)(methyl)amino)-1-methyl-3-propyl-1H-pyrazolo[4,3-d]pyrimidin-7(6H)-one] had an IC50 of 101 to 500 nM.
As for `CCCc1nn(C)c2c(=O)[nH]c(N(C)CCc3ccccc3)nc12` [Example 22, 1-methyl-5-(methyl(phenethyl)amino)-3-propyl-1H-pyrazolo[4,3-d]pyrimidin-7(6H)-one], the IC50 lay in the range of 101 to 500 nM.
Then `CCCc1nn(C)c2c(=O)[nH]c(NCc3cccc(F)c3)nc12` [Example 18, 5-(3-fluorobenzylamino)-1-methyl-3-propyl-1H-pyrazolo[4,3-d]pyrimidin-7(6H)-one], with more than 500 nM; and `CN1CCN(c2cccc(CNc3nc4c(C(C)(C)C)nn(C)c4c(=O)[nH]3)c2)CC1` [Example 92, 3-tert-butyl-1-methyl-5-(3-(4-methylpiperazin-1-yl)benzylamino)-1H-pyrazolo[4,3-d]pyrimidin-7(6H)-one], with less than 100 nM.
Then `CCCc1nn(C)c2c(=O)[nH]c(N(Cc3cccc(-n4cncn4)c3)CC(C)CC)nc12` (stereo not shown) [Example 116], with less than 100 nM; and `CCCc1nn(C)c2c(=O)[nH]c(NCc3ccc(S(N)(=O)=O)cc3)nc12` [Example 120, 4-((1-methyl-7-oxo-3-propyl-6,7-dihydro-1H-pyrazolo[4,3-d]pyrimidin-5-ylamino)methyl)benzenesulfonamide], with more than 500 nM.
